Here are results for 3 compounds from patent US12485134B2, “Use of nicotinamide riboside, nicotinic acid riboside, reduced nicotinyl riboside compounds, and nicotinyl riboside compound derivatives in formulations” (ChromaDex Inc., priority 2019, dated 2025).

Molecules are shown by their SMILES.

The subject of series [1] is milk concentrate proteins. Put plainly: WaterLOGSY NMR binding of NR-Cl. As to conditions: milk concentrate, pH 7.0. The procedure: (§1) WaterLOGSY is a sensitive ligand-observed NMR experiment designed for the screening of protein ligands from a mixture of potential binders. […] The experiment relies on fast dissociation of bound ligands to carry into the free state magnetisation originating from irradiated water that has been transmitted via the protein complex.
(§2) NMR samples for WaterLOGSY were prepared as follows. Ligand-detect WaterLOGSY experiments were carried at 600 MHz with 5-mm cryoprobe and using 5-mm NMR tubes. Each NMR sample for WaterLOGSY contained ˜0.05 mg (˜0.35 mM), using unlabeled ligand NR-Cl (“NR”), in a NMR buffer containing ˜0.5 mL 90% H2O/10% ^2H2O at pH 7.0 with or without the milk and soy protein mix (compared to the WaterLOGSY of NR as a negative control). Protein was added as a powder with a minimal 15 to 50 μM concentration. Typically, the final NMR sample of protein-compound mixtures had >20-fold higher compound concentration of ligand compared to that of the protein. Denatured samples were prepared by simply heating (80° C. for 15-20 mins) the aqueous (5-10% ^2H2O) protein mixture (in absence of NR).
The NR only WaterLOGSY spectrum (FIG. 23) was the negative control to screen for any potential binding of NR-Cl to milk concentrate and soy isolate proteins as shown herein and discussed below.

Series [2] deals with protein components of a meal replacement beverage. Nature of the series: WaterLOGSY NMR binding of NR-Cl. As to conditions: meal replacement beverage containing soy protein isolate and milk protein concentrate. The procedure: as §1, §2
The beverage that was tested contained soy protein isolate and milk protein concentrate and it could only be either of these ingredients that could contribute to the positive result that was observed. […]

Another series concerns milk proteins. Put plainly: WaterLOGSY NMR, direct binding of 15N-labeled NR to milk proteins. As to conditions: no milk, 150 μL and 300 μL of milk. The source says:
Whey protein fraction and casein protein have been identified as leading candidates to bind directly to and stabilize nicotinamide riboside (NR, I) in milk. The addition of these proteins in particular (either alone or in combination with other proteins and/or vitamins) in order to stabilize nicotinamide riboside (NR, I) in liquid constitutes another embodiment of a method of delivery of the present invention. […] In this experiment, Water-Ligand Observed via Gradient Spectroscopy (WaterLOGSY NMR) was used to detect direct binding of stable, isotope-labeled (^15N) nicotinamide riboside (NR, I) to milk proteins. This is visualized as a concentration-dependent shift in the nicotinamide riboside (NR, I) spectra with increasing additions of milk. The concentric shapes shifts from left to right are the results of addition of no milk, 150 μL of milk, and 300 μL of milk, respectively.

The nature of series [3]: Recovery of NR added to store bought (cow) milk, HILIC/HPLC/UV. The note with it: cow's milk and human breast milk. The format is physicochemical. Here is the method:
Nicotinamide riboside (NR, I) is also naturally found in milk. […] FIGS. 2B and 2C are control chromatograms showing detection of nicotinamide riboside (NR, I) after adding nicotinamide riboside (NR, I) to the milk sample at a known amount. […] The calculated recovery of the 1% nicotinamide riboside (NR, I) was close to 100%. […] Centrifugation was then performed to remove any precipitate, and the supernatant was analyzed using an HILIC/HPLC/UV using standard methods.

For series [4] the following is noted: mice on a high-fat diet supplemented with NR; cited from earlier work.
For series [5], the system named is hydrolyzed whey protein isolate. Nature of the series: NR-Cl binding to hydrolyzed whey protein isolate (10 kDa cutoff filtration, unbound NR-Cl in filtrate by HPLC). As to conditions: hydrolyzed whey protein isolate solutions, ambient and refrigerated. Here is the method:
A. Solutions of hydrolyzed whey protein isolate (>90% protein, 2-7% degree of hydrolysis) were prepared at varying concentrations and filtered through 0.2 μm sterile filters. An aliquot of sterile nicotinamide riboside chloride (“NR-Cl,” a salt of NR, I) in water solution was spiked into the sterile whey solutions, targeting a final NR-Cl concentration of 1 mmol per liter (0.3 mg/mL). The solutions containing the mixture of hydrolyzed whey and NR-Cl were filtered through 10 kDa molecular weight cutoff centrifuge filters to remove the whey proteins (14-80 kDa) and any NR-Cl that was bound to the proteins. Any NR-Cl that was not bound to the whey proteins was recovered in the filtrate and quantitated by HPLC.
The solutions of hydrolyzed whey protein isolate and NR-Cl were stored at ambient and refrigerated conditions and analyzed at various timepoints for NR-Cl protein binding and stability.
A study measuring the stability of NR-Cl in hydrolyzed and non-hydrolyzed whey protein was conducted with 2 mmol/L NR-Cl (0.6 mg/mL) and 20 mg/mL protein (33.3:1 wt:wt protein:NR-Cl). […] (See Table 5).

Series [6] in a line: Degradation tracking of 15N NR-Cl to 15N nicotinamide by 15N-1H HMBC and 1H NMR, with or without whey protein. The format is physicochemical. The procedure:
A series of 1D ^1H and 1D ^15N-^1H HMBC experiments were collected on a 600 MHz Bruker instrument with 5-mm cryoprobe and using 5-mm NMR tubes. Each sample contains ˜10 mM ^15N isotope labeled NR-Cl (or non-isotope), in a solution containing ˜0.5 mL 90% H2O/10% ^2H2O buffered at pH values of 7.0 (5 mM PBS) and 9.0 (50 mM Glycine/Sodium hydroxide), with or without whey protein. The NMR tube was incubated at 25° C. and data collected at 1, 3 and 7 days. The NMR results provided evidence of binding to milk and soy protein and provided evidence of increased stability in combination with Whey protein at different pH over a 7 day time-course.
FIG. 22 highlights the corresponding ^1H-NMR data for the increased stability of the NR-Cl at day 7 under pH 7 and 9 buffered conditions, compared to control.
The integrations for the peaks corresponding to ^15N NR-Cl and ^15N nicotinamide were measured for the degradation that had occurred to ^15N—NR-Cl from Day 1 to Day 7. […] The half-life for ^15N NR-Cl in buffered pH 9 conditions- improved from 2.7 days (control) to 10 days in the presence of Whey protein.

Consider `NC(=O)c1ccc[n+]([C@@H]2O[C@H](CO)[C@@H](O)[C@H]2O)c1` [NR, Nicotinamide riboside], for which the WaterLOGSY binding entry is “comparatively weaker binding” in series [1] and “strongest evidence of NR binding” in series [2]. In the series on milk proteins, the “direct binding to milk proteins (WaterLOGSY, concentration-dependent shift)” value is recorded as “binds to proteins in milk”. Besides, the stability in milk result in series [3] was “stable in milk”. For the same compound, the less weight gained in series [4] is given as 40%.

Consider `NC(=O)c1cccnc1` [nicotinamide], for which, in series [5], the binding to whey entry is reported as “not observed to bind”.

Broadly, the half-life is the time in which the quantity being followed falls by half. Regarding `NC(=O)c1ccc[15n+]([C@@H]2O[C@H](CO)[C@@H](O)[C@H]2O)c1` [^15N NR-Cl, ^15N-labeled nicotinamide riboside chloride], the half-life was 672 h in series [6] (PBS buffer with whey protein, buffered pH 7, 25° C., in the presence of Whey protein); 81.6 h in series [6] (PBS buffer without whey protein (control), buffered pH 7, 25° C., control (without Whey protein)); 64.8 h in series [6] (buffered pH 9, 25° C., control (without Whey protein)); 240 h in series [6] (glycine/sodium hydroxide buffer with whey protein, buffered pH 9, 25° C., in the presence of Whey protein). The “rate of degradation in the presence of Whey protein” value in series [6] (pH 7.0 and 9.0, days 1, 3 and 7) is recorded as “slower than the control”.
